Laboratory results: publication PMC11474028, “Lipopeptide antibiotics disrupt interactions of undecaprenyl phosphate with UptA” (Proceedings of the National Academy of Sciences of the …, 2024)
“Also recorded” adds a separate entry of the source.

System: UptA E32A
Test: Native MS of C55-P binding to UptA mutant E32A
Parameters: species or system Bacillus subtilis
Conditions: 2.5 µM E32A UptA and 10 µM C55-P, pH 8.0
Description: Conserved arginine residues in the putative membrane reentrant loops of E. coli DedA proteins YqjA (R130) and YghB (R136) are important for the cellular role of these proteins ([36]). […] How these residues impact substrate interactions, however, is not known. Based on the model structure of UptA predicted by AlphaFold, the R112 residue should engage Q64 while R118 is able to form hydrogen bonds with E32, H119, and W146 to potentially stabilize the membrane reentrant loops (Fig. 3A). To test for the impact of these residues on C55-P binding, we generated the E32A, Q64A, R112A, R118A, H119A, and W146A UptA single mutants. After purification of the proteins, using the same protocol as the wild type (WT) (Materials and Methods and SI Appendix, Fig. […]
Expression and purification of UptA
Plasmids were used to transform chemically competent E. coli C43(DE3) cells (Lucigen) and selected on LB/Agar containing 100 μg/ml ampicillin at 37 °C. Single colonies were used to inoculate 60 mL LB containing 100 μg/ml ampicillin and were grown at 37 °C overnight for 16 h. […]
The digestion mixture was subsequently incubated with 2-mL bed volume of nickel nitriloacetic acid (NTA) agarose resin to remove His-tagged GFP and TEV protease. […] Concentration was measured using a Biomate UV spectrophotometer at 280 nm using extinction coefficients calculated from their predicted amino […]

## CC(C)=CCC/C(C)=C/CC/C(C)=C/CC/C(C)=C\CC/C(C)=C\CC/C(C)=C\CC/C(C)=C\CC/C(C)=C\CC/C(C)=C\CC/C(C)=C\CC/C(C)=C\COP(=O)(O)O [C55-P, undecaprenyl phosphate]
  C55-P binding to E32A UptA dimers versus monomers (in words): more significantly than the monomeric form; also recorded: relative intensity of ligand-bound dimers is significantly higher than the ligand-bound monomers
  impact of C55-P binding on monomer–dimer ratio of E32A UptA (in words): modest increase in the dimer fraction; also recorded: only a modest impact on the monomer–dimer ratios
